Source: ChEMBL document CHEMBL1201862, “PubChem BioAssay data set” (2004)
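Briefly, cells in 96-well plates were exposed to five compound concentrations for 48 h, and endpoints were estimated by linear interpolation. GI50: concentration for 50% inhibition of growth.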 Activity calls are given as the source filed them. No stated cut-off is given here; in the data, active = GI50 up to about 1.1 µM and inactive = higher.

Assays:
Assay in all cases: DTP human tumour cell line panel, 48 h
HCC 2998 = test system: HCC 2998
MDA-MB-231 = test system: MDA-MB-231
UACC-62 = test system: UACC-62
OVCAR-3 = test system: OVCAR-3
BT-549 = test system: BT-549
PC-3 = test system: PC-3
TK-10 = test system: TK-10
OVCAR-8 = test system: OVCAR-8
NCI-H226 = test system: NCI-H226
LOX IMVI = test system: LOX IMVI
M14 = test system: M14
SK-MEL-28 = test system: SK-MEL-28
MCF7 = test system: MCF7
HOP-62 = test system: HOP-62
MDA-N = test system: MDA-N
Malme-3M = test system: Malme-3M
SF-295 = test system: SF-295
RPMI-8226 = test system: RPMI-8226
KM12 = test system: KM12
NCI-H522 = test system: NCI-H522

| SMILES | GI50 (HCC 2998) | GI50 (MDA-MB-231) | GI50 (UACC-62) | GI50 (OVCAR-3) | GI50 (BT-549) | GI50 (PC-3) | GI50 (TK-10) | GI50 (OVCAR-8) | GI50 (NCI-H226) | GI50 (LOX IMVI) | GI50 (M14) | GI50 (SK-MEL-28) | GI50 (MCF7) | GI50 (HOP-62) | GI50 (MDA-N) | GI50 (Malme-3M) | GI50 (SF-295) | GI50 (RPMI-8226) | GI50 (KM12) | GI50 (NCI-H522) |
| --- | --- | --- | --- | --- | --- | --- | --- | --- | --- | --- | --- | --- | --- | --- | --- | --- | --- | --- | --- | --- |
| CCOC(=O)C[C@@H]1C2(C=C[C@@]13CO3)OCC(C)(C)CO2 | > 100 µM (inactive) | > 100 µM (inactive) | > 100 µM (inactive) | > 100 µM (inactive) | > 100 µM (inactive) | > 100 µM (inactive) | > 100 µM (inactive) | > 100 µM (inactive) | > 100 µM (inactive) | > 100 µM (inactive) | > 100 µM (inactive) | > 100 µM (inactive) | > 100 µM (inactive) | > 100 µM (inactive) | > 100 µM (inactive) | > 100 µM (inactive) | > 100 µM (inactive) |  |  |  |
| O=Cc1cn(CCCCCCCCn2cc(C=O)c3ccccc32)c2ccccc12 | > 10 µM (inactive) | > 10 µM (inactive) | > 10 µM (inactive) | > 10 µM (inactive) |  | 4.22 µM (inactive) | > 10 µM (inactive) | > 10 µM (inactive) | 8.24 µM (inactive) | 7.57 µM (inactive) | > 10 µM (inactive) | > 10 µM (inactive) | 7.13 µM (inactive) | > 10 µM (inactive) | > 10 µM (inactive) | > 10 µM (inactive) | 6.41 µM (inactive) | 3.96 µM (inactive) | > 10 µM (inactive) | > 10 µM (inactive) |
| COP(=O)(OC)C(Cc1cn(C(C)=O)c2ccccc12)C(=O)O (stereo not drawn) | > 100 µM (inactive) | > 100 µM (inactive) |  | > 100 µM (inactive) |  | > 100 µM (inactive) | > 100 µM (inactive) | > 100 µM (inactive) | > 100 µM (inactive) | > 100 µM (inactive) | > 100 µM (inactive) | > 100 µM (inactive) | 8.26 µM (inactive) | > 100 µM (inactive) | > 100 µM (inactive) |  | > 100 µM (inactive) | > 100 µM (inactive) |  | > 100 µM (inactive) |
| COC(=O)c1ccc(NCC2=C(Br)C(=O)C=CC2=O)cc1Cl | 42.6 µM (inactive) | 18.3 µM (inactive) | 18.8 µM (inactive) | 13.9 µM (inactive) | 13.1 µM (inactive) | 20 µM (inactive) | 16.4 µM (inactive) | 19.3 µM (inactive) | 74.8 µM (inactive) | 14.9 µM (inactive) | 18.2 µM (inactive) | 18.8 µM (inactive) | 17 µM (inactive) |  | 16.9 µM (inactive) | 15.2 µM (inactive) | 40.1 µM (inactive) | 40.3 µM (inactive) | 34.5 µM (inactive) | 6.43 µM (inactive) |
| O=P1(N2CCOCC2)OCCO1 | > 100 µM (inactive) |  | > 100 µM (inactive) |  |  | > 100 µM (inactive) |  |  |  | > 100 µM (inactive) | > 100 µM (inactive) | > 100 µM (inactive) | > 100 µM (inactive) |  | > 100 µM (inactive) | > 100 µM (inactive) | > 100 µM (inactive) | > 100 µM (inactive) | > 100 µM (inactive) | > 100 µM (inactive) |
| CCOC(=O)c1c(-c2ccccc2)c(C)cn1C |  | 0.0125 µM (active) | > 10 µM (inactive) | > 10 µM (inactive) | > 10 µM (inactive) |  | > 10 µM (inactive) | > 10 µM (inactive) | > 10 µM (inactive) |  | > 10 µM (inactive) |  |  |  | > 10 µM (inactive) |  | > 10 µM (inactive) |  | > 10 µM (inactive) | > 10 µM (inactive) |
| CCOC(=O)c1ccc(N[C@@H]2c3cc4c(cc3C(c3cc(OC)c(O)c(OC)c3)[C@H]3C(=O)OCC32)OCO4)cc1 (stereo partly drawn) | 1.22 µM (inactive) | 1.67 µM (inactive) | 0.521 µM (active) | 2.85 µM (inactive) | 1.64 µM (inactive) | 1.61 µM (inactive) |  | 0.708 µM (active) | 0.284 µM (active) |  | 0.679 µM (active) | 2.55 µM (inactive) | 0.105 µM (active) |  |  | 0.568 µM (active) |  | 0.145 µM (active) | 1.5 µM (inactive) |  |
| CN(CCCCCl)P(=O)(OCC1=CC(=O)c2ccccc2C1=O)OC[C@H]1O[C@@H](n2cc(F)c(=O)[nH]c2=O)C[C@@H]1O (stereo partly drawn) | < 0.01 µM (active) | 3.2 µM (inactive) | 0.0399 µM (active) | 0.109 µM (active) | 9.06 µM (inactive) | 0.165 µM (active) | 1.45 µM (inactive) | 0.0378 µM (active) | 0.521 µM (active) | < 0.01 µM (active) | 0.0897 µM (active) | 4.11 µM (inactive) | < 0.01 µM (active) | 0.0415 µM (active) | 0.753 µM (active) | 1.1 µM (active) | < 0.0175 µM (active) |  | 3.64 µM (inactive) | 0.239 µM (active) |
| CCCCCCCCCCCC1=C(O)C(=O)C=C(O)C1=O [EMBELIN] | 4.72 µM (inactive) |  | 4.11 µM (inactive) | 4.71 µM (inactive) |  |  |  | 2.01 µM (inactive) | 5.25 µM (inactive) | 7.35 µM (inactive) |  | 6.67 µM (inactive) | 7.64 µM (inactive) | 5.56 µM (inactive) |  | 5.81 µM (inactive) | 6.03 µM (inactive) | 3.81 µM (inactive) | 6.38 µM (inactive) | 8.95 µM (inactive) |
